Measured values: patent US9549994B2, “Compositions of nicardipine and sulfoalkylated β-cyclodextrin” (EKR Therapeutics, Inc., priority 2006, dated 2017)

Columns and labels:
[1] = Phase-solubility study of nicardipine HCl and CAPTISOL as a function of pH; assay type: physicochemical; conditions: FIG. 1
Procedure: in this phase-solubility study, nicardipine HCl, in amounts that exceeded its solubility, was taken into vials containing buffers in the pH range of 3.6-7.4 and containing CAPTISOL® in the concentration range of 2-40% w/v. These evaluations were also done for buffer solutions containing no CAPTISOL®. The vials were sealed and shaken at room temperature until equilibrium was reached. Subsequently, test sample aliquots were withdrawn, filtered, and drug concentration was determined by RP-HPLC with UV detection.

[2] = cited from earlier work

| solubility as a function of CAPTISOL concentration ([1]; at a given pH value, CAPTISOL 2-40% w/v) | solubility as a function of pH ([1]; buffers pH 3.6-7.4, room temperature) | SMILES | solubility in water [2] |
| --- | --- | --- | --- |
| increased | decreased with increased pH | COC(=O)C1=C(C)NC(C)=C(C(=O)OCCN(C)Cc2ccccc2)C1c1cccc([N+](=O)[O-])c1.Cl (racemic) [nicardipine HCl, (±)-2-(benzyl-methylamino)ethyl methyl 1,4-dihydro-2,6-dimethyl-4-(m-nitrophenyl)-3,5-pyridinedicarboxylate monohydrochloride] |  |
|  |  | COC(=O)C1=C(C)NC(C)=C(C(=O)OCCN(C)Cc2ccccc2)C1c1cccc([N+](=O)[O-])c1 (stereo not drawn) [Nicardipine, nicardipine] | only slightly soluble in water |
